# Reference: patent US12643887B2, “Heterocyclic derivatives with cardiomyocyte proliferation activity for treatment of heart diseases” (Tongji University, priority 2019, dated 2026)
# Biological target: T1, human CIT (Homo sapiens, UniProt O14578)
# T1 construct: Recombinant human CIT (1-499); GST (N); purchased SignalChem C52-11G; host or cells: Sf9 insect cells
# Assay: CIT enzyme assay (ADP-Glo)
# Type: biochemical
# Details: ADP-Glo, ATP 5 μM; read-out: CIT IC50
# Description: The ability of compounds to inhibit human CIT kinase activities was determined using a commercially available ADP-Glo™ Kinase Assay kit (Promega, Cat #V9102) according to the manufacturer's protocol.
# Recombinant human CIT (1-499) (expressed in Sf9 insect cells with an N-terminal GST tag) was purchased from SignalChem (Cat #C52-11G). Recombinant full length human MBP (expressed in E. Coli cells with an N-terminal GST tag) was purchased from SignalChem (Cat #M42-54G). This assay, run in a 384-well plate format, is a generic method for measuring kinase activities using an ADP-Glo Kinase Assay Kit. The basic assay procedure involves two steps: (1) Enzymatic step: inhibitors are incubated with the kinase and then ATP (included in the ADP-Glo Kinase Assay Kit) and the MBP protein are added to start the enzymatic reaction; (2) Detection step: after the kinase reaction, first ADP-Glo™ Reagent is added to terminate the kinase reaction and deplete the remaining ATP. Second, the Kinase Detection Reagent is added to simultaneously convert ADP to ATP and allow the newly synthesized ATP to be measured using a luciferase/luciferin reaction. The light generated is measured using a luminometer.
# Briefly, CIT (20 nM) in the enzymatic buffer solutions (40 mM Tris, pH 7.5, 20 mM MgCl2, 0.1 mg/ml BSA, 50 μM DTT) were mixed with various concentrations of inhibitors (dissolved in 100% DMSO). These solutions were incubated for 30 minutes at 25° C., and subsequently a mixture of substrate peptide and ATP was added with the final peptide and ATP concentrations at 0.05 mg/ml and 5 μM, respectively. The final reaction mixture of enzyme-substrate-ATP-compound was incubated for 90 minutes at 25° C.
# Afterwards ADP-Glo™ Reagent was added and the mixture was incubated at 25° C. for 60 minutes. Then Kinase Detection Reagent was added, and the final mixture was incubated at 25° C. for 60 minutes. The luminescence signal of the final solution was measured on an Envision instrument (PerkinElmer). The percent (%) inhibition at each concentration of a compound is calculated relative to the luminescence signal in the Max and Min control wells contained within each assay plate. […] The concentrations and percent inhibition values for a test compound are plotted and the concentration of the compound required to achieve 50% inhibition (IC50) is determined with a four-parameter logistic dose response equation.
# T1 sequence (O14578 1-499): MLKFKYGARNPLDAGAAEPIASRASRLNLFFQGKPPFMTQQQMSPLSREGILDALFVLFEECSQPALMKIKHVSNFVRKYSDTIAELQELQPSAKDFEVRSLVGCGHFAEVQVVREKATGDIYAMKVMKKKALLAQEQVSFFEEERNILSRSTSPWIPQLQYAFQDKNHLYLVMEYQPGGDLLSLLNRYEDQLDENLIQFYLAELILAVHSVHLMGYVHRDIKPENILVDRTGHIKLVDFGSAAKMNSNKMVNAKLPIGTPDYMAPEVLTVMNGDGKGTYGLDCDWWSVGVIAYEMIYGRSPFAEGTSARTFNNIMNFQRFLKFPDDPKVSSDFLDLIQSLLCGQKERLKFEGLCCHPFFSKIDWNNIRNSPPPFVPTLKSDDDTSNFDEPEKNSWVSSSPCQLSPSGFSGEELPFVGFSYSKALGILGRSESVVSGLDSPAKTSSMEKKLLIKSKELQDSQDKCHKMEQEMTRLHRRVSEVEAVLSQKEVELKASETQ
row,SMILES,IC50 [nM]
1,"CN(C1=N/C(=C\c2ccc3c(c2)OCO3)C(=O)N1)c1ccccc1 [Example 1, (Z)-5-(benzo[d][1,3]dioxol-5-ylmethylene)-2-(methyl(phenyl)amino)-3,5-dihydro-4H-imidazol-4-one]",> 10000
2,"O=C1/C(=C/c2ccc3c(c2)OCO3)N=C(N(Cc2ccccc2)c2ccccc2)N1Cc1ccccc1 [Example 2, (Z)-5-(benzo[d][1,3]dioxol-5-ylmethylene)-3-benzyl-2-(benzyl(phenyl)amino)-3,5-dihydro-4H-imidazol-4-one]",> 10000
3,"O=C1NC(Nc2ccccc2)=N/C1=C\c1ccc2ncsc2c1 [Example 6, (Z)-5-(benzo[d]thiazol-6-ylmethylene)-2-(phenylamino)-3,5-dihydro-4H-imidazol-4-one]",100 to 1000
4,"CN(C1=N/C(=C\c2ccc3ncsc3c2)C(=O)N1)c1ccccc1 [Example 7, (Z)-5-(benzo[d]thiazol-6-ylmethylene)-2-(methyl(phenyl)amino)-3,5-dihydro-4H-imidazol-4-one]",100 to 1000
5,"CN(CC1CC1)C1=N/C(=C\c2ccc3c(c2)OCO3)C(=O)N1 [Example 11, (Z)-5-(benzo[d][1,3]dioxol-5-ylmethylene)-2-((cyclopropylmethyl)(methyl)amino)-3,5-dihydro-4H-imidazol-4-one]",> 10000
6,"O=C1NC(N(CCO)c2ccccc2)=N/C1=C\c1ccc2c(c1)OCO2 [Example 13, (Z)-5-(benzo[d][1,3]dioxol-5-ylmethylene)-2-((2-hydroxyethyl)(phenyl)amino)-3,5-dihydro-4H-imidazol-4-one]",> 10000
7,"COc1ccccc1N(C)C1=N/C(=C\c2ccc3c(c2)OCO3)C(=O)N1 [Example 21, (Z)-5-(benzo[d][1,3]dioxol-5-ylmethylene)-2-((2-methoxyphenyl)(methyl)amino)-3,5-dihydro-4H-imidazol-4-one]",> 10000
8,"O=C1NC(N(Cc2ccccc2)c2ccccc2)=N/C1=C\c1ccc2c(c1)OCO2 [Example 22, (Z)-5-(benzo[d][1,3]dioxol-5-ylmethylene)-2-(benzyl(phenyl)amino)-3,5-dihydro-4H-imidazol-4-one]",> 10000
9,"CN(Cc1ccccc1)C1=N/C(=C\c2ccc3c(c2)OCO3)C(=O)N1 [Example 23, (Z)-5-(benzo[d][1,3]dioxol-5-ylmethylene)-2-(benzyl(methyl)amino)-3,5-dihydro-4H-imidazol-4-one]",> 10000
10,"CN(C1=N/C(=C\c2ccc3c(c2)OCO3)C(=O)N1)c1ccc(N)cc1 [Example 37, (Z)-2-((4-aminophenyl)(methyl)amino)-5-(benzo[d][1,3]dioxol-5-ylmethylene)-3,5-dihydro-4H-imidazol-4-one]",> 10000
11,"COc1ccc(N(C)C2=N/C(=C\c3ccc4ncsc4c3)C(=O)N2)cc1 [Example 38, (Z)-5-(benzo[d]thiazol-6-ylmethylene)-2-((4-methoxyphenyl)(methyl)amino)-3,5-dihydro-4H-imidazol-4-one]",1000 to 10000
12,"O=C1NC(Nc2ccc(Cl)cc2)=N/C1=C\c1ccc2ncsc2c1 [Example 40, (Z)-5-(benzo[d]thiazol-6-ylmethylene)-2-((4-chlorophenyl)amino)-3,5-dihydro-4H-imidazol-4-one]",100 to 1000
13,"O=C1/C(=C/c2ccc3ncsc3c2)N=C(N(Cc2ccccc2)c2ccccc2)N1Cc1ccccc1 [Example 42, (Z)-5-(benzo[d]thiazol-6-ylmethylene)-3-benzyl-2-(benzyl(phenyl)amino)-3,5-dihydro-4H-imidazol-4-one]",> 10000
14,"CN(C1=N/C(=C\c2ccc3ncsc3c2)C(=O)N1)c1ccc(N)cc1 [Example 44, (Z)-2-((4-aminophenyl)(methyl)amino)-5-(benzo[d]thiazol-6-ylmethylene)-3,5-dihydro-4H-imidazol-4-one]",100 to 1000
15,"CC(C)NC1=N/C(=C\c2ccc3ncsc3c2)C(=O)N1C [Example 45, (Z)-5-(benzo[d]thiazol-6-ylmethylene)-2-(isopropylamino)-3-methyl-3,5-dihydro-4H-imidazol-4-one]",100 to 1000
16,"Cn1cnc2ccc(/C=C3\N=C(Nc4ccccc4)NC3=O)cc21 [Example 46, (Z)-5-((1-methyl-1H-benzo[d]imidazol-6-yl)methylene)-2-(phenylamino)-3,5-dihydro-4H-imidazol-4-one]",100 to 1000
17,"O=C1NC(Nc2ccc3ncsc3c2)=N/C1=C\c1ccc2c(c1)OCO2 [Example 47, (Z)-5-(benzo[d][1,3]dioxol-5-ylmethylene)-2-(benzo[d]thiazol-6-ylamino)-3,5-dihydro-4H-imidazol-4-one]",> 10000
18,"O=C1NC(Nc2ccc3ncsc3c2)=N/C1=C\c1ccc2ncsc2c1 [Example 48, (Z)-2-(benzo[d]thiazol-6-ylamino)-5-(benzo[d]thiazol-6-ylmethylene)-3,5-dihydro-4H-imidazol-4-one]",100 to 1000
19,"O=C1NC(Nc2ccccc2)=N/C1=C\c1ccc2occc2c1 [Example 52, (Z)-5-(benzofuran-5-ylmethylene)-2-(phenylamino)-3,5-dihydro-4H-imidazol-4-one]",> 10000
20,"O=C1NC(Nc2ccccc2)=N/C1=C\c1ccc2ncccc2c1 [Example 53, (Z)-2-(phenylamino)-5-(quinolin-6-ylmethylene)-3,5-dihydro-4H-imidazol-4-one]",> 10000
21,"CN(C1=N/C(=C\c2ccc3c(c2)OCO3)C(=O)N1)c1ccc2ncsc2c1 [Example 70, (Z)-5-(benzo[d][1,3]dioxol-5-ylmethylene)-2-(benzo[d]thiazol-6-yl(methyl)amino)-3,5-dihydro-4H-imidazol-4-one]",> 10000
22,"O=C1NC(Nc2ccc3nccnc3c2)=N/C1=C\c1ccc2ncsc2c1 [Example 82, (Z)-5-(benzo[d]thiazol-6-ylmethylene)-2-(quinoxalin-6-ylamino)-3,5-dihydro-4H-imidazol-4-one]",> 10000
23,"CN(C1=N/C(=C\c2ccc3ncsc3c2)C(=O)N1)c1ccc2ncsc2c1 [Example 83, (Z)-2-(benzo[d]thiazol-6-yl(methyl)amino)-5-(benzo[d]thiazol-6-ylmethylene)-3,5-dihydro-4H-imidazol-4-one]",100 to 1000
24,"CN(C1=N/C(=C\c2ccc3c(c2)OCCO3)C(=O)N1)c1ccc2ncsc2c1 [Example 84, (Z)-2-(benzo[d]thiazol-6-yl(methyl)amino)-5-((2,3-dihydrobenzo[b][1,4]dioxin-6-yl)methylene)-3,5-dihydro-4H-imidazol-4-one]",> 10000
25,"NC1=N/C(=C\c2ccc3ncsc3c2)C(=O)N1 [Example 103, (Z)-2-amino-5-(benzo[d]thiazol-6-ylmethylene)-3,5-dihydro-4H-imidazol-4-one]",100 to 1000
